How the values were obtained:
PDE 2A = PDE 2A (Homo sapiens (Human), UniProt O00408); assay: Phosphodiesterase (PDE) 2A assay with fluorescent substrate (IMAP, fluorescence polarization); assay type: biochemical; settings: PDE2A, read-out: PDE2 IC50
Protocol: (§1) The IMAP system (Molecular Device) using fluorescence polarization (FP) as detection principle was used to measure enzyme activity. A fluorescent labeled cAMP was used as substrate for the reaction, generating a labeled AMP. The fluorescent AMP binds specifically to the large M(III)-based nano-particles which reduces the rotational speed of the substrate and thus increases its polarization. Detailed Method: The inhibition of PDE 2A or 10 enzyme activity was assessed using IMAP-Phosphodiesterase-cAMP fluorescence labeled substrate (Molecular Devices, Order No. R7506), IMAP TR-FRET screening express (Molecular Devices, Order No. R8160, the TR-FRET component will not be used) and PDE 2A or PDE10 protein expressed upon baculovirus infection in SF9 cells. The cells were incubated after infection for ˜3 days and protein production was confirmed by Western Blot. The cells were collected by centrifugation and the pellet frozen in liquid nitrogen before it was resuspended in PBS containing 1% Triton X-100 and protease inhibitors. After 45 min incubation on ice, the cell debris was removed by centrifugation (13.000 rpm, 30 min). […] All reactions were performed in 384 well plates, Perkin Elmer black optiplates and IMAP reaction buffer with 0.1% Tween20 (kit component) Compounds were serial diluted in DMSO. […] Reaction is stopped by adding of 60 μl binding buffer for FP/cAMP (kit component).

human MDR1 P-gp = assay: Assessment of efflux in MDCK cells transfected with the human MDR1 gene (MDCK assay); assay type: in vitro ADME, canine; settings: dog
Protocol: Assessment of Efflux in Madin-Darby Canine Kidney Cells Transfected with the Human MDR1 Gene (MDCK Assay)
Apparent permeability coefficients (PE) of the compounds across the MDCK-MDR1 cell monolayers are measured (pH 7.4, 37° C.) in apical-to-basal (AB) and basal-to-apical (BA) transport direction. AB permeability (PEAB) represents drug absorption from the blood into the brain and BA permeability (PEBA) drug efflux from the brain back into the blood via both passive permeability as well as active transport mechanisms mediated by efflux and uptake transporters that are expressed on the MDCK-MDR1 cells, predominantly by the overexpressed human MDR1 P-gp. The compounds are assigned to permeability/absorption classes by comparison of the AB permeabilities with the AB permeabilities of reference compounds with known in vitro permeability and oral absorption in the human. Identical or similar permeabilities in both transport directions indicate passive permeation, vectorial permeability points to additional active transport mechanisms. Higher PEBA than PEAB indicates the involvement of active efflux mediated by MDR1 P-gp. […]
MDCK-MDR1 cells (1-2×10e5 cells/1 cm2 area) are seeded on filter inserts (Costar transwell polycarbonate or PET filters, 0.4 μm pore size) and cultured (DMEM) for 7 days. […] Efflux ratio is calculated dividing the Papp (b-a) values by the Papp (a-b) values.

PDE10 = PDE10 (Homo sapiens (Human), UniProt Q9Y233); assay: Phosphodiesterase (PDE) 10 assay with fluorescent substrate (IMAP, fluorescence polarization); assay type: biochemical
Protocol: as §1

PDE10, sequence (Q9Y233 whole entry): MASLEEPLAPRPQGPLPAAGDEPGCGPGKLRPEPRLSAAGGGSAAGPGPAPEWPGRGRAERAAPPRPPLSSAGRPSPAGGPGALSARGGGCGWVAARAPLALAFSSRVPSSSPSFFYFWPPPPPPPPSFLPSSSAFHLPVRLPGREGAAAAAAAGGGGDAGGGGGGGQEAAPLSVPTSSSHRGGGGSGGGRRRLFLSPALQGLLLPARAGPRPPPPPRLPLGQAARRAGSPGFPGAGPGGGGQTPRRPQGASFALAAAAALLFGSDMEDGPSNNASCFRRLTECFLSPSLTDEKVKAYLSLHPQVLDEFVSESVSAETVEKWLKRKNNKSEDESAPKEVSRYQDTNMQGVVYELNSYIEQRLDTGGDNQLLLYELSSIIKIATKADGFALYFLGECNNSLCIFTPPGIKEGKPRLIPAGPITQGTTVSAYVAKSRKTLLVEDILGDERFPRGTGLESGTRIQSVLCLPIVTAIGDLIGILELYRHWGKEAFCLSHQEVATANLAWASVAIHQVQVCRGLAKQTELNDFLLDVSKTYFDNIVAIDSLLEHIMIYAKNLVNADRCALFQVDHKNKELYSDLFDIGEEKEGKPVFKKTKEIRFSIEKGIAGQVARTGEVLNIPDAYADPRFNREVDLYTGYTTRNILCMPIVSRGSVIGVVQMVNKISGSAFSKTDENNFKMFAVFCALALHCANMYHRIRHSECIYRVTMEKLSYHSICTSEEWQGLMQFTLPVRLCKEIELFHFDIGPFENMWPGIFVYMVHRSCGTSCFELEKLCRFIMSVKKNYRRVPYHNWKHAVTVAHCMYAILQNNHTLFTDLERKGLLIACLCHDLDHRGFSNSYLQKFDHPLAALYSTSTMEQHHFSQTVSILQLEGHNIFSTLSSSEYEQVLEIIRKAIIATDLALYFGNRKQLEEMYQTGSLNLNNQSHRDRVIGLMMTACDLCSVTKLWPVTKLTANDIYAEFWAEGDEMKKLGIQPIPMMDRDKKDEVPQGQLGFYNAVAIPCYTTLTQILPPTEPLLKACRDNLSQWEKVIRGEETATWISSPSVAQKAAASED
PDE 2A, sequence (O00408 whole entry, species assumed): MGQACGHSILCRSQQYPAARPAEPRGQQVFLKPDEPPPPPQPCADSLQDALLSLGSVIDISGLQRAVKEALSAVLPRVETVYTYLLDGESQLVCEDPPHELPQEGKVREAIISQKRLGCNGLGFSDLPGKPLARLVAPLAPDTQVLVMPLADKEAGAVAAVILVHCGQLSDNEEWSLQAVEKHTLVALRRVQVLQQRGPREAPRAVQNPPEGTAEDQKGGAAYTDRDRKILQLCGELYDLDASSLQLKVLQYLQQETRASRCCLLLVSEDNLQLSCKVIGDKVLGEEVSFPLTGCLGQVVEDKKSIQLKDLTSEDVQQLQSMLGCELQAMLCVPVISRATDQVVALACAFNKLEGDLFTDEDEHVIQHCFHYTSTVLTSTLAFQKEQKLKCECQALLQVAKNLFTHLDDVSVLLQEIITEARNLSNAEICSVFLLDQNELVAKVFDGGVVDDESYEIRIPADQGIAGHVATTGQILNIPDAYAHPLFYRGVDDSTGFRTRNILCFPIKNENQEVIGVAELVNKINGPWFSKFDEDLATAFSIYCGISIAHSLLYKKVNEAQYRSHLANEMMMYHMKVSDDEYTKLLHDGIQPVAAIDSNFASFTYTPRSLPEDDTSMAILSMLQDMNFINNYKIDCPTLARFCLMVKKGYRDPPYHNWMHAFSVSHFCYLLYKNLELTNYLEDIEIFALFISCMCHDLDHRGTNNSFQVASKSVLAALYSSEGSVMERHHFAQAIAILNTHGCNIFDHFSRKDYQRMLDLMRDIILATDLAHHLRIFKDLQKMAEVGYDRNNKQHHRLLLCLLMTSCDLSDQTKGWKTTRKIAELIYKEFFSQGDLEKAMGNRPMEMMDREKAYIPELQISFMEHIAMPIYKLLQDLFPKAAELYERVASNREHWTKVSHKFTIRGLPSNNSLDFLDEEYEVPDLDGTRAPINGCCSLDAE

Cc1nn2cc(C3CC3)cnc2c1C(=O)NC1(c2ccc(C(F)(F)F)cn2)CCOCC1 [Example 25]
IC50 (PDE 2A): 0.088 µM
efflux ratio (human MDR1 P-gp; pH 7.4, MDCK-MDR1, Papp (b-a) divided by Papp (a-b)): 0.8
Papp A→B (human MDR1 P-gp; MDCK-MDR1, apical-to-basal, pH 7.4, 37° C.): 100 ×10⁻⁶ cm/s
IC50 (PDE10): 9.07 µM
